Test results published in ChEMBL document CHEMBL1201862, “PubChem BioAssay data set” (2004).
Active and inactive are the calls of the source.

Key:
[1] = biological target: T1, Carboxy-terminal domain RNA polymerase II polypeptide A small phosphatase 1 (Homo sapiens, UniProt Q9GZU7); assay: inhibitors of CTDSP1, concentration-response testing, biochemical assay, absorbance-based, actives from ultra-high-throughput screening (AID 540297); format: functional
T1 sequence (Q9GZU7 whole entry): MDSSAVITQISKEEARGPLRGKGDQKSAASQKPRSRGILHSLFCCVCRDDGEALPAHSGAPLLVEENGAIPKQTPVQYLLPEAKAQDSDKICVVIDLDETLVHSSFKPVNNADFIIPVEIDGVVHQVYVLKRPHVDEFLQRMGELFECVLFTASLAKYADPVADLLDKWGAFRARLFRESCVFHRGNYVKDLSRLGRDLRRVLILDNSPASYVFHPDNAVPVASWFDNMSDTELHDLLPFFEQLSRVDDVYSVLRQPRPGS

[2] = C. albicans growth with fluconazole, confirmation, fluorescence, retest (AID 2467); format: functional, cell-based
[3] = NIH-3T3 fibroblast cytotoxicity, dose response, cytotoxicity control, cell-based, fluorescence, Alamar Blue, secondary assay (AID 2327); format: functional;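 also: NIH-3T3 mouse fibroblasts cultured with fluconazole at 8 µg/mL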
Beta-galactosidase = Beta-galactosidase (Escherichia coli, UniProt Q8VNN2); assay: PubChem AID 485352; format: functional
Sequence of Beta-galactosidase (Q8VNN2 whole entry): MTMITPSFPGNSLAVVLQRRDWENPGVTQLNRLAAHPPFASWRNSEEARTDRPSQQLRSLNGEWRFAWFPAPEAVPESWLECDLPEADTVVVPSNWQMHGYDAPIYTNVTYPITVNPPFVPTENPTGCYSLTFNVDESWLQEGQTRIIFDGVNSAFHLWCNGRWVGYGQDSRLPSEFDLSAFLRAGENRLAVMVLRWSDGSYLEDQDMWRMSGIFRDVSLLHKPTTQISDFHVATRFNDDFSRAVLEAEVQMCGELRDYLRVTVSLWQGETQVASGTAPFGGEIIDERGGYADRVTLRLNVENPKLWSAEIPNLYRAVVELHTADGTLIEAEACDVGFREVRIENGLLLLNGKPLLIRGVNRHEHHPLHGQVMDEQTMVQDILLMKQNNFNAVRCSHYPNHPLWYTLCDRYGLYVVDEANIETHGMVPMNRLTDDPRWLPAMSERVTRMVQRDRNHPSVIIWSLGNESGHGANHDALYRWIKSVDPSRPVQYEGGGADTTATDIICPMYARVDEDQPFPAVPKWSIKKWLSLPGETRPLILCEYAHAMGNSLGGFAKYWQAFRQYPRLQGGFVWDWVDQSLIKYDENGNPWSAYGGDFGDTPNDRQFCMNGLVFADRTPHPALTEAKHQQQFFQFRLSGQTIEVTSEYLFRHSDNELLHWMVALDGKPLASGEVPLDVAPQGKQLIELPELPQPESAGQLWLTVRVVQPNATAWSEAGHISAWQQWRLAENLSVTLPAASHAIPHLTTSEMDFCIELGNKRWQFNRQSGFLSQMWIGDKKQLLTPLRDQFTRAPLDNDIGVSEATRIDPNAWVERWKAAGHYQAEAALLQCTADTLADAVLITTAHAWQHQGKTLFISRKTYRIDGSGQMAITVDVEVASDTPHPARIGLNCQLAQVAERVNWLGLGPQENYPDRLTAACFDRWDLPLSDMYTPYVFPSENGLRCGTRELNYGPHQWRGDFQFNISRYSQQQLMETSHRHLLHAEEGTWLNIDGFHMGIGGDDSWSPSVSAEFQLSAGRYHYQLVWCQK

[4] = biological target: T2, Type-1 angiotensin II receptor (Homo sapiens, UniProt P30556); assay: AT1 receptor antagonists, dose response, selectivity assay for APJ receptor antagonist project, cell-based, uHTS hits (AID 463214); format: functional;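 also: antagonist potency against angiotensin II stimulated AT1 response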
T2 sequence (P30556 whole entry): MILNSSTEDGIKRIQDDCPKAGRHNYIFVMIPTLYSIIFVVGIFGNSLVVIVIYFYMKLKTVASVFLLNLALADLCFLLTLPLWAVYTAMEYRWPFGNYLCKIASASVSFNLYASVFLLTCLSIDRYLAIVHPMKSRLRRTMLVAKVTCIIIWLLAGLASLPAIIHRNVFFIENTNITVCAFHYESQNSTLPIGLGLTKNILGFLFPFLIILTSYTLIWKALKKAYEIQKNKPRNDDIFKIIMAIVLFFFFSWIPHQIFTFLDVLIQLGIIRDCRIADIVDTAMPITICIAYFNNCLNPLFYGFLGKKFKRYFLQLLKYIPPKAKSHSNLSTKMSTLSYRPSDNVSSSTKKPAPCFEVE

Cytochrome P450 1A2 = biological target: T3, Cytochrome P450 1A2 (Homo sapiens, UniProt P05177);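 also: PubChem cytochrome P450 panel assay, CYP1A2 panel member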
T3 sequence (P05177 whole entry): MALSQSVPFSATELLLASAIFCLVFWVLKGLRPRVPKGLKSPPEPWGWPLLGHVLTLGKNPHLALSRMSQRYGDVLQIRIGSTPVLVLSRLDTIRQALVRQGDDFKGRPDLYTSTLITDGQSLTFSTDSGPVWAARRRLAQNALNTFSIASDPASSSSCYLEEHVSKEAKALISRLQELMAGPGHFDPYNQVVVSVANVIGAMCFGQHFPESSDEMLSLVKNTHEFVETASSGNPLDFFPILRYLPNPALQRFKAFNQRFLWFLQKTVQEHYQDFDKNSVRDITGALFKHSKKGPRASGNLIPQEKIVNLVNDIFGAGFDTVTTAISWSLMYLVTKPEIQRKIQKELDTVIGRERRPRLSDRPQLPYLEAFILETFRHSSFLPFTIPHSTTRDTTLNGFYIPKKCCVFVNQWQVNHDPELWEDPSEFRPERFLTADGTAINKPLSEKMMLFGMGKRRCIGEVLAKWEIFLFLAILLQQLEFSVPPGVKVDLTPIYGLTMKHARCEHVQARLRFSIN

[5] = biological target: T4, Heat shock factor protein 1 (Mus musculus, UniProt P38532); assay: inhibition of MG132-induced HSE-luciferase signal, confirmation, cell-based, NIH3T3, luminescence, dose retest (AID 2382); format: functional;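 also: NIH3T3 fibroblasts with HSF1-driven luciferase reporter stressed by proteasome inhibitor MG132; luminescence from HSF1-driven luciferase expression after 8 hours of MG132 stress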
T4 sequence (P38532 whole entry): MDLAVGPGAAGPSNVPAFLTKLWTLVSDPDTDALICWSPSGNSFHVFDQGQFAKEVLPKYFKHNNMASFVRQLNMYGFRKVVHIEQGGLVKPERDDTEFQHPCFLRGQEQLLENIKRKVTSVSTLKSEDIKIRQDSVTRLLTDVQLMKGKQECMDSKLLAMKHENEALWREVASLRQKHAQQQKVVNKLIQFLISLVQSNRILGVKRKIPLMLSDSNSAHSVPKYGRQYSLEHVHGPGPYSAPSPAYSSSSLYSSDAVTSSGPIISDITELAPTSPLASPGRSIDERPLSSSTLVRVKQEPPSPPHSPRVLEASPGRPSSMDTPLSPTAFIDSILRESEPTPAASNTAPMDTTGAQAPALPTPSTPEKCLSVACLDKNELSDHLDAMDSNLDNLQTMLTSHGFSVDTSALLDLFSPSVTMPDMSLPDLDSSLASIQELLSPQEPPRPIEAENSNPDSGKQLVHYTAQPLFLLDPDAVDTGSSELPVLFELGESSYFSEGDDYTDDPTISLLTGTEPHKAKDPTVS

Cytochrome P450 2C9 = Cytochrome P450 2C9 (Homo sapiens, UniProt P11712)
Sequence of Cytochrome P450 2C9 (P11712 whole entry): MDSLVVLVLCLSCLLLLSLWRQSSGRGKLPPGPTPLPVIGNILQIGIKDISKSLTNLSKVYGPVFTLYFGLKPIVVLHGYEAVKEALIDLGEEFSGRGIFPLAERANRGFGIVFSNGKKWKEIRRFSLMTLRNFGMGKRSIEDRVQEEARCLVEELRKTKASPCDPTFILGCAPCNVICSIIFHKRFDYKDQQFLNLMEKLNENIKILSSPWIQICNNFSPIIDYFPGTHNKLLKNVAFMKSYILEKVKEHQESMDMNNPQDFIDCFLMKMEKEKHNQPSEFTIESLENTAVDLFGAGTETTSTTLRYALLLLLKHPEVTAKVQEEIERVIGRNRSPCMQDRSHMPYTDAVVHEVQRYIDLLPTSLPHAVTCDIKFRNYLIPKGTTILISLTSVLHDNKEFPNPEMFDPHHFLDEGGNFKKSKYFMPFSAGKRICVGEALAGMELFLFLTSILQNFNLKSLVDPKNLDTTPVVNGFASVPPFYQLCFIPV

Cytochrome P450 2C19 = Cytochrome P450 2C19 (Homo sapiens, UniProt P33261); assay: Cytochrome panel assay with activity outcomes. Panel member name: p450-cyp2c19 Compounds with AC50 equal or less than 10 uM are considered active; format: functional; details: read-out: AC50
Sequence of Cytochrome P450 2C19 (P33261 whole entry): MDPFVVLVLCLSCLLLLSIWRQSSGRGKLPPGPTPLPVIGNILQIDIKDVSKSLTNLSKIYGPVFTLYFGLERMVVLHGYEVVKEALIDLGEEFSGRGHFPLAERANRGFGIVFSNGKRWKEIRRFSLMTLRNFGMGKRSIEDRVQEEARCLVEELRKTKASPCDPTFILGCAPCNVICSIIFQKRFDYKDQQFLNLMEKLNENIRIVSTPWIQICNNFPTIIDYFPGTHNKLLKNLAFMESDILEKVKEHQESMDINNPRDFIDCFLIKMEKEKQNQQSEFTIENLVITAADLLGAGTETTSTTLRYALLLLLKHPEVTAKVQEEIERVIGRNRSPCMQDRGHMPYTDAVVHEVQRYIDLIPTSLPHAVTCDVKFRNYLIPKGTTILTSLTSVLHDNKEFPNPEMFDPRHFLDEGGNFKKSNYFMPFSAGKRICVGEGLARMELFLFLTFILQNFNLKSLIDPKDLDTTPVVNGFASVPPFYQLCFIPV

Cytochrome P450 3A4 = Cytochrome P450 3A4 (Homo sapiens, UniProt P08684);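 also: CYP3A4 tested as one member of a cytochrome P450 panel screen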
Sequence of Cytochrome P450 3A4 (P08684 whole entry): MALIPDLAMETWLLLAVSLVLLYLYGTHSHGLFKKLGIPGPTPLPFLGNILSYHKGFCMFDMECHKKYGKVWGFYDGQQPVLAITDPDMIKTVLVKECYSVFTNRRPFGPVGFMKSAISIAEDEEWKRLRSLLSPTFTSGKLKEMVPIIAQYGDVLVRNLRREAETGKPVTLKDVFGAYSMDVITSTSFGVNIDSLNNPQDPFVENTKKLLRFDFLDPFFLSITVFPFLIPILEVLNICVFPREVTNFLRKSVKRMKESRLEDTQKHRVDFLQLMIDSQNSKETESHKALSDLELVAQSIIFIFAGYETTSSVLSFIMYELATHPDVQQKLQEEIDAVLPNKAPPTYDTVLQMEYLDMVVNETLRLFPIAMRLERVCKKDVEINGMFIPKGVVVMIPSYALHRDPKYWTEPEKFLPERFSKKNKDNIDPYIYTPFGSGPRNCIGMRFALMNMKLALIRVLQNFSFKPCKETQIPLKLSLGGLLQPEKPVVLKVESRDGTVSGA

[6] = Luminescence Cell-Based Dose Retest to Confirm Inhibitors of Cancer Stem Cells. [Related pubchem assays (depositor defined):AID2717, AID2721]; format: functional; details: Homo sapiens
[7] = inhibitors of intracellular T. cruzi replication, confirmation, NIH3T3 host cells, beta-gal luminescence (AID 2044); format: functional, cell-based;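 also: intracellular parasites grown in NIH/3T3 mouse fibroblasts as host cells; luminescent beta-galactosidase reporter signal from transgenic T. cruzi replicating inside host cells; inhibitors lower the luminescence signal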
[8] = cytotoxicity toward NIH3T3 fibroblasts, dose response, counter-screen, cell-based, ATP luminescence, mouse fibroblasts (AID 2010); format: functional;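 also: cells exposed to compound for about 90 hours before reading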
[9] = cytotoxicity toward DRD oncogenic fibroblasts, dose response, cell-based, non-viral oncogenic, luminescence (AID 1934); format: functional; details: Homo sapiens
BJ [10] = assay: cells; format: functional, cell-based; details: Homo sapiens
BJ [11] = assay: cytotoxicity toward BJ-TERT-LT-ST fibroblasts, dose response, cell-based, RAS-independent, luminescence (AID 1935); format: functional; details: Homo sapiens;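 also: BJ fibroblasts immortalized with TERT plus LT and ST oncogenes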
BJ [12] = assay: cytotoxicity toward Ras-transformed BJeLR fibroblasts, dose response, cell-based, alamar blue fluorescence, cherrypicked samples (AID 2631); format: functional; details: Homo sapiens;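 also: confirmatory dose-response assay in RAS-dependent BJ fibroblasts engineered with TERT, LT and ST, with cytotoxicity read by fluorescence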
BJ [13] = assay: cytotoxicity toward BJ-TERT fibroblasts, dose response, cell-based, RAS-independent, luminescence (AID 1933); format: functional; details: Homo sapiens
[14] = intracellular Trypanosoma cruzi inhibitors in host cells – cell-based, plate reader, cherry-pick samples, set 3, dose response (AID 651818); format: functional;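 also: compounds incubated with infected cells for about four days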
SN12K1 = assay: cells; format: functional; details: Homo sapiens
P388/ADR = assay: cells; format: functional; details: Mus musculus
[15] = Luminescence Cell-Based Dose Response HTS to Identify Inhibitors of 5'UTR Stem-Loop Driven Prion Protein mRNA Translation in H4 Neuroglioblastoma Cells. [Related pubchem assays: 1827 (Project Summary), 1813 (Primary HTS)]; format: functional
[16] = inhibitors of SNCA 5'UTR-driven reporter translation, confirmation, H4 neuroglioma cells, luminescence (AID 1988); format: functional, cell-based
P388 = assay: cells; format: functional; details: Mus musculus
[17] = inhibitors of firefly luciferase expression or activity, dose response, H4 neuroglioma cells, luminescence (AID 1990); format: functional, cell-based

Cc1c(Cc2ccccc2)c(=O)oc2c(C)c(OCC(=O)NC[C@H]3CC[C@H](C(=O)O)CC3)ccc12
IC50 [1]: 4.87 µM (active)

Cc1onc(C(=O)Nc2sc3c(c2C#N)CCCC3)c1[N+](=O)[O-]
EC50 [2]: 1.59 µM (active)
EC50 [3]: > 75 µM (inactive)

Cn1c(=O)c(C(=S)NC(=O)C2CC2)c(N)n(Cc2ccccc2)c1=O
EC50 (Beta-galactosidase): > 40 µM (inactive)
IC50 [4]: > 40 µM (not active)

CCOc1c2ccc(C(=O)NCc3ccccc3OC)cc2nn1CC
AC50 (Cytochrome P450 1A2): 17.8 µM (inconclusive)
EC50 [5]: > 195 µM (not active)
AC50 (Cytochrome P450 2C9): inconclusive
AC50 (Cytochrome P450 2C19): 39.8 µM (inconclusive)
AC50 (Cytochrome P450 3A4): 15.8 µM (inconclusive)

N=C1/C(=C/c2cccn2-c2ccc([N+](=O)[O-])cc2)C(=O)N=C2SC=CN12
EC50 [2]: 1.33 µM (active)
EC50 [3]: > 160 µM (inactive)

Cn1cc(-c2nc3cnc(Oc4cccc(Cl)c4)nc3n(CCC#N)c2=O)c2ccccc21
AC50 (Cytochrome P450 1A2): 2.51 µM (inconclusive)
AC50 (Cytochrome P450 2C9): inconclusive
AC50 (Cytochrome P450 3A4): 7.94 µM (inconclusive)

O=C(NNC(=O)c1cc2ccccc2cc1O)NC1CCCCC1
EC50 [2]: > 38 µM (not active)
EC50 [3]: > 150 µM (inactive)

Cc1cc(C)c2sc(N(CCCN(C)C)C(=O)c3ccc(S(=O)(=O)N4CCCc5ccccc54)cc3)nc2c1
AC50 [6]: 4.46 µM (active)
EC50 (Beta-galactosidase): > 40 µM (inactive)
IC50 [4]: > 40 µM (not active)
EC50 [7]: 0.452 µM (active)
EC50 [8]: 12.2 µM (active)

O=C(COC(=O)c1cnccn1)c1cccc([N+](=O)[O-])c1
EC50 (Beta-galactosidase): > 40 µM (inactive)
IC50 [4]: 13.6 µM (active)

CCOC(=O)/C=C1\CN(C(C)c2ccccc2)S(=O)(=O)c2ccccc21 (stereo not drawn)
IC50 [1]: 12.3 µM (active)

COc1cccc2sc(Nc3nc(C)c(C(C)=O)s3)nc12
EC50 (Beta-galactosidase): > 40 µM (inactive)
IC50 [4]: 23.3 µM (not active)
EC50 [7]: 1.82 µM (active)
EC50 [8]: 7.09 µM (active)

CCCC(=O)Nc1ccc(C(=O)N/N=C/c2ccc([N+](=O)[O-])o2)cc1
EC50 [9]: 26.5 µM (active)
EC50 (BJ [10]): 0.38 µM (active)
EC50 (BJ [11]): 0.534 µM (inconclusive)
EC50 (BJ [12]): 0.123 µM (active)
EC50 (BJ [13]): 17.2 µM (active)

COc1ccc(S(=O)(=O)Nc2ccc3c(c2)CC(=O)N([C@@H](C)CO)C[C@H](C)[C@H](CN(C)Cc2ccc(C(=O)Nc4ccccc4N)cc2)O3)cc1
AC50 [14]: 3.23 µM (active)

C[C@@H]1CCCCO[C@@H](CN(C)Cc2ccc(Cl)c(Cl)c2)[C@@H](C)CN([C@H](C)CO)C(=O)c2cc(NC(=O)NC3CCCCC3)ccc2O1
AC50 [14]: 5.48 µM (active)

COc1ccc(S(=O)(=O)N(C)C[C@H]2Oc3ccc(NS(=O)(=O)c4ccc(Cl)cc4)cc3CC(=O)N([C@H](C)CO)C[C@H]2C)cc1
AC50 [14]: 4.94 µM (active)

C[C@@H]1CN([C@@H](C)CO)C(=O)Cc2cc(NC(=O)Cc3ccccc3)ccc2O[C@@H]1CN(C)Cc1ccc(Oc2ccccc2)cc1
AC50 [14]: 2.61 µM (active)

C[C@@H]1CCCCO[C@H](CN(C)C(=O)Nc2ccc(C(F)(F)F)cc2)[C@@H](C)CN([C@H](C)CO)C(=O)c2cc(NC(=O)C3CCCCC3)ccc2O1
AC50 [14]: 1.12 µM (active)

C[C@H]1CN([C@@H](C)CO)C(=O)Cc2cc(NC(=O)NC3CCCCC3)ccc2O[C@@H]1CN(C)Cc1ccc(Oc2ccccc2)cc1
AC50 [14]: 6.74 µM (active)

COc1ccc(S(=O)(=O)Nc2ccc3c(c2)CC(=O)N([C@H](C)CO)C[C@@H](C)[C@@H](CN(C)Cc2ccc(C(=O)Nc4ccccc4N)cc2)O3)cc1
AC50 [14]: 2.9 µM (active)

COC(=O)C[C@](O)(CCCC(C)(C)O)C(=O)O[C@@H]1C(OC)=C[C@]23CCCN2CCc2cc4c(cc2[C@H]13)OCO4 [OMACETAXINE MEPESUCCINATE]
GI50 (SN12K1): 0.0115 µM (active)
GI50 (P388/ADR): 0.247 µM (active)
EC50 [15]: < 0.1 µM (active)
EC50 [16]: < 0.1 µM (active)
GI50 (P388): 0.00388 µM (active)
EC50 [17]: < 0.1 µM (active)
EC50 (BJ [12]): 0.00488 µM (active)
